According to patent US20110184178A1, “POLYMORPHS OF 5-(3-(ETHYLSULFONYL)PHENYL)-3,8-DIMETHYL-N-(1-METHYLPIPERIDIN-4-YL)-9H-PYRIDO[2,3-B]INDOLE-7-CARBOXAMIDE AND METHODS OF USE THEREFOR” (Takeda Pharmaceutical Company Limited, priority 2008, published 2011):
Counter-ions that a name gives are not always drawn.

Experiments:
Format in all cases: physicochemical
[1] = Approximate solubility screen of Compound I in different solvents; conditions: for solubility: organic solvent or mixture, thermodynamic from solid
Description: A solubility screen of Compound I was evaluated in 20 different solvents chosen as MeCN, dioxane, acetone, MtBE, EtOH, EtOAc, IPAc, IPA, THF, 2-MeTHF, MEK, DMF, AcOH, MeOH, cyclohexane, heptane, DCM, toluene, NMP, and DMAc, to select appropriate primary and binary solvents for the polymorph screen. One to four mg of the Compound I was charged to 2-dram clear vials equipped with magnetic stir bars and solvent was added in 250-μL portions with heating to 55° C. until complete dissolution was observed or a maximum of 6 mL was added. […] Solvents and other reagents were of ACS or HPLC grade and were used as received.

[2] = Slurry experiments (form by XRPD after slurrying in a solvent); conditions: 2.0 mL
Description: 50 to 60 mg of Form A of Compound I was weighed out into 2 dram amber vials and the material was slurried in 2 mL of a solvent. The slurry experiments were carried out at either ambient temperature or at 40° C. Samples were obtained from slurries after one day, one week, and two weeks. Tables 15 and 16 detail the results of the slurry experiments.

[3] = Solubility study of Form A in de-ionized water and 20 mM phosphate buffer at pH 3.2 (HPLC, XRPD of solids); conditions: for solubility: thermodynamic from solid
Description: Solubility was determined for Form A of Compound I by suspending the material in de-ionized water and 20 mM phosphate buffer at pH 3.2 and ambient temperature. Approximately 40 mg of Form A of Compound I was charged to 2-dram amber vials equipped with magnetic stir bars, followed by the addition of DI water or phosphate buffer (2.0 mL) in one portion. The samples were allowed to equilibrate with stirring for 16 h, followed by centrifugation. An aliquot of the supernatant liquid was analyzed by HPLC, and the solids isolated by filtration and dried under vacuum at ambient temperature for analysis by XRPD. Samples were allowed to stir for an additional 6 days and concentration determined by HPLC.

[4] = Physical characterization of the polymorphs and salt (XRPD, DSC, TGA, 1H-NMR, KF, moisture sorption): stability assessment; conditions: solid form
Description: Described herein are Form A, Form B, Form C, Form D, Form E, Form F and Form G of Compound I. Various tests were performed in order to physically characterize the polymorphs of Compound I, including X-ray powder diffraction (XRPD), differential scanning calorimetry (DSC), thermogravimetric analysis (TGA), solution proton nuclear magnetic resonance (^1H-NMR), and moisture sorption and desorption analysis (M S/Des). Detailed experimental conditions for each of the analytical techniques are described in the Examples section. […] A summary of these experiments and the results are presented below and in Table 12.

[5] = Moisture-sorption analysis (gravimetric adsorption/desorption, 25° C.)
Description: Further, the material gained enough water to form the dihydrate in approximately 45 minutes at 30% RH during adsorption and lost enough water to form the anhydrate at 15% RH during desorption in less than 60 minutes. […] The sample was further allowed to equilibrate at ambient laboratory conditions overnight and reanalyzed by XRPD. […] The moisture sorption experiment of Form C of Compound I provides a curve similar to the Form A curve (FIG. 11). […] Further, the material gained enough water to form the dihydrate in less than 60 minutes at 30% RH during adsorption and lost enough water to form the anhydrate at 15% RH during desorption in approximately 80 minutes. […] Moisture-sorption experiments were carried out on all samples by first drying the sample at 0% RH and 25° C. until an equilibrium weight was reached or for a maximum of four hours. The sample was then subjected to an isothermal (25° C.) adsorption scan from 10 to 90% RH in steps of 10%. Samples were then allowed to equilibrate to an asymptotic weight at each point for a maximum of four hours. Following adsorption, a desorption scan from 85 to 0% RH (at 25° C.) was run in steps of −10% again allowing a maximum of four hours for equilibration to an asymptotic weight. Samples were dried for one hour at 80° C. and the resulting solids analyzed by XRPD.

[6] = Form A slurried in water, 40 ° C.
[7] = Form A slurried in water, Ambient

CCS(=O)(=O)c1cccc(-c2cc(C(=O)NC3CCN(C)CC3)c(C)c3[nH]c4ncc(C)cc4c23)c1 [Compound I, 5-(3-(ethylsulfonyl)phenyl)-3,8-dimethyl-N-(1-methylpiperidin-4-yl)-9H-pyrido[2,3-b]indole-7-carboxamide]
Soluble ([1]; 2-Me—THF, 1.6 mg, 5.75 mL, heating to 55° C.): No
Soluble ([1]; AcOH, 2.1 mg in 0.75 mL, Temp RT): Yes
Conc. ([1]; AcOH, Temp RT, 2.1 mg in 0.75 mL): 2800 µg/mL
Soluble ([1]; DCM, 2.6 mg, 4.50 mL, heating to 55° C.): No
Soluble ([1]; DMA, 2.8 mg in 0.50 mL, Temp 55): Yes
Conc. ([1]; DMA, Temp 55, 2.8 mg in 0.50 mL): 5600 µg/mL
Soluble ([1]; DMF, 1.8 mg in 0.50 mL, Temp RT): Yes
Conc. ([1]; DMF, Temp RT, 1.8 mg in 0.50 mL): >3600 µg/mL
Soluble ([1]; EtOAc, 2.2 mg, 5.75 mL, heating to 55° C.): No
Soluble ([1]; EtOH, 1.6 mg in 4.75 mL, Temp 55): Yes
Conc. ([1]; EtOH, Temp 55, 1.6 mg in 4.75 mL): 340 µg/mL
Soluble ([1]; Heptane, 1.9 mg, 3.50 mL, heating to 55° C.): No
Soluble ([1]; IPAC, 2.6 mg, 5.75 mL, heating to 55° C.): No
Soluble ([1]; MTBE, 1.3 mg, 5.75 mL, heating to 55° C.): No
Soluble ([1]; MeCN, 1.7 mg in 5.75 mL, Temp 55): Yes
Conc. ([1]; MeCN, Temp 55, 1.7 mg in 5.75 mL): 300 µg/mL
Soluble ([1]; MeOH, 1.7 mg in 2.00 mL, Temp 55): Yes
Conc. ([1]; MeOH, Temp 55, 1.7 mg in 2.00 mL): 850 µg/mL
Soluble ([1]; NMP, 2.4 mg in 0.50 mL, Temp 55): Yes
Conc. ([1]; NMP, Temp 55, 2.4 mg in 0.50 mL): 4800 µg/mL
Soluble ([1]; THF, 1.3 mg in 3.75 mL, Temp 55): Yes
Conc. ([1]; THF, Temp 55, 1.3 mg in 3.75 mL): 350 µg/mL
Soluble ([1]; Toluene, 1.8 mg, 3.50 mL, heating to 55° C.): No
Soluble ([1]; c-Hexane (cyclohexane), 1.8 mg, 3.50 mL, heating to 55° C.): No
solubility (in words) ([1]; in MeCN, MTBe, EtOAc, IPAc, IPA, THF, MEK, heptane and water): Poor solubility
solubility (in words) ([1]; in MeOH, DMF, DMA, NMP, CHCl3, AcOH and EtOH): Good solubility
solubility (in words) ([1]; in polar solvents including MeCN, EtOH, THF, DMF, AcOH, MeOH, NMP, and DMAc): appreciable solubility
solubility ([1]; Acetone, 1.8 mg, 5.75 mL, heating to 55° C.): < 330 µg/mL
solubility ([1]; Dioxane, 1.7 mg, 5.75 mL, heating to 55° C.): < 330 µg/mL
solubility ([1]; IPA, 1.2 mg, 5.75 mL, heating to 55° C.): < 330 µg/mL
solubility ([1]; MEK, 1.9 mg, 5.75 mL, heating to 55° C.): < 330 µg/mL
XRPD Results Day 1* ([2]; Form A slurried in Acetone, Ambient): amorphous
XRPD Results Day 1* ([2]; Form A slurried in MEK, Ambient): amorphous
XRPD Results Day 1* ([2]; Form A slurried in THF, Ambient): amorphous
XRPD Results Day 1* [2, 6]: amorphous
XRPD Results Week 1* [2, 6]: amorphous
XRPD Results Day 1* [2, 7]: amorphous
XRPD Results Week 1* [2, 7]: amorphous
solubility ([3]; aqueous buffer, 20 mM phosphate buffer at pH 3.2): < 100 µg/mL
solubility ([3]; de-ionized water, water): < 100 µg/mL

CCS(=O)(=O)c1cccc(-c2cc(C(=O)NC3CCN(C)CC3)c(C)c3[nH]c4ncc(C)cc4c23)c1 [HPF6 salt of Compound I]
stability (based on the available characterization data) [4]: stable under ambient conditions

CCS(=O)(=O)c1cccc(-c2cc(C(=O)NC3CCN(C)CC3)c(C)c3[nH]c4ncc(C)cc4c23)c1 [Form C, 5-(3-(ethylsulfonyl)phenyl)-3,8-dimethyl-N-(1-methylpiperidin-4-yl)-9H-pyrido[2,3-b]indole-7-carboxamide]
stability (based on the available characterization data) [4]: stable under ambient low humidity conditions
form conversion in aqueous media ([3]; during the solubility determination): converted to Form A
time to lose enough water to form the anhydrate ([5]; at 15% RH during desorption): approximately 80 minutes
time to gain enough water to form the dihydrate ([5]; at 30% RH during adsorption): less than 60 minutes
hydration state in the moisture sorption experiment ([5]; during both adsorption and desorption, 25° C.): convert to a stable dihydrate above 20% RH

CCS(=O)(=O)c1cccc(-c2cc(C(=O)NC3CCN(C)CC3)c(C)c3[nH]c4ncc(C)cc4c23)c1 [Form E, 5-(3-(ethylsulfonyl)phenyl)-3,8-dimethyl-N-(1-methylpiperidin-4-yl)-9H-pyrido[2,3-b]indole-7-carboxamide]
stability (based on the available characterization data) [4]: stable under ambient non-aqueous conditions

CCS(=O)(=O)c1cccc(-c2cc(C(=O)NC3CCN(C)CC3)c(C)c3[nH]c4ncc(C)cc4c23)c1 [Form D, 5-(3-(ethylsulfonyl)phenyl)-3,8-dimethyl-N-(1-methylpiperidin-4-yl)-9H-pyrido[2,3-b]indole-7-carboxamide]
stability (based on the available characterization data) [4]: stable under ambient non-aqueous conditions

CCS(=O)(=O)c1cccc(-c2cc(C(=O)NC3CCN(C)CC3)c(C)c3[nH]c4ncc(C)cc4c23)c1 [Form B, 5-(3-(ethylsulfonyl)phenyl)-3,8-dimethyl-N-(1-methylpiperidin-4-yl)-9H-pyrido[2,3-b]indole-7-carboxamide]
stability (based on the available characterization data) [4]: stable under ambient non-aqueous conditions
